In PMC7001764 (Cell reports, 2020):

What was measured:
[1] = target: T1, CAPN5-PC (calpain-5 protease core) (Homo sapiens, UniProt O15484); assay: inhibition of Ac-LLY-AFC hydrolysis by purified CAPN5-PC; format: biochemical
T1 sequence (O15484 1-343): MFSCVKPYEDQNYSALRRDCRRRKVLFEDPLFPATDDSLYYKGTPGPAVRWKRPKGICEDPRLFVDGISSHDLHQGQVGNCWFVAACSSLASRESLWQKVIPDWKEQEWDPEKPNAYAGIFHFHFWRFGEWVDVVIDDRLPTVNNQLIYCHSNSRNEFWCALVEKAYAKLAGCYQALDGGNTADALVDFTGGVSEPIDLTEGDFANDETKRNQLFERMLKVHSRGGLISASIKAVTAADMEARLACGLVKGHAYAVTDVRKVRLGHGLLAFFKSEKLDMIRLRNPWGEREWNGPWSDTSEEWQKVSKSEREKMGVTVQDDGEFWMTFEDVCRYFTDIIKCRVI

[2] = substrate: CC(=O)N[C@@H](CC(C)C)C(=O)N[C@@H](CC(C)C)C(=O)N[C@@H](Cc1ccc(O)cc1)C(=O)Nc1ccc2c(C(F)(F)F)cc(=O)oc2c1; assay: purified protein; conditions: Ca2+ ([…])

With CC(C)C[C@H](NC(=O)[C@H]1O[C@@H]1C(=O)O)C(=O)NCCCCN=C(N)N [E-64] as the molecule, how does the IC50 [1] read?
Its IC50 is 1200 ± 300 nM.

B1: CAPN5-PC (calpain-5 protease core) (Homo sapiens) (protein)
chain: MFSCVKPYEDQNYSALRRDCRRRKVLFEDPLFPATDDSLYYKGTPGPAVRWKRPKGICEDPRLFVDGISSHDLHQGQVGNCWFVAACSSLASRESLWQKVIPDWKEQEWDPEKPNAYAGIFHFHFWRFGEWVDVVIDDRLPTVNNQLIYCHSNSRNEFWCALVEKAYAKLAGCYQALDGGNTADALVDFTGGVSEPIDLTEGDFANDETKRNQLFERMLKVHSRGGLISASIKAVTAADMEARLACGLVKGHAYAVTDVRKVRLGHGLLAFFKSEKLDMIRLRNPWGEREWNGPWSDTSEEWQKVSKSEREKMGVTVQDDGEFWMTFEDVCRYFTDIIKCRVI
With B1 as the molecule, how does the Km [2] read?
Its Km is 153 × 10^2 ± 38 μM.
